Measured values reported in patent publication US20260258032A1, “TYROSINE KINASE 2 INHIBITORS AND USES THEREOF” (BIOGEN MA INC., priority 2022, published 2026).
Where a name gives a salt, the structure may show the parent alone.

How the values were obtained:
[1] = molecular target: T1, JH2 domain of human Tyk2 (Homo sapiens, UniProt P29597); experiment: JH2 biochemical assay (TR-FRET probe displacement); format: binding; settings: JH2 biochemical assay
T1 construct: 10×His-tagged TYK2 JH2 domain (amino acid 575-876)
Summary of the method: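 A probe-displacement TR-FRET readout: compounds, tested in 3-fold, 10-point dilutions starting at […], compete with 2 nM tracer for 2 nM His-tagged JH2 (residues 575-876) detected by 0.1 nM Tb-anti-His over 60 min. IC50 comes from 4-parameter fits of normalized 520/495 nm ratios.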

[2] = test system: Tyk2 kinase activity on STAT4; experiment: pSTAT4 cell assay (MSD, NK92 cells); format: cell-based; settings: compounds 1 hr, stimulated 15 minutes
Summary of the method: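 Read-out: phospho-STAT in NK92 lysates, MSD format, anti-STAT4 antibodies. Cells were serum-starved, given compound for 1 hr (10 μM top, four-fold, 10 points) and IL2-stimulated (30 ng/mL, 15 min). Normalized percent activity vs log concentration, 4-parameter logistic fit gave IC50.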

T1 sequence (P29597 575-876): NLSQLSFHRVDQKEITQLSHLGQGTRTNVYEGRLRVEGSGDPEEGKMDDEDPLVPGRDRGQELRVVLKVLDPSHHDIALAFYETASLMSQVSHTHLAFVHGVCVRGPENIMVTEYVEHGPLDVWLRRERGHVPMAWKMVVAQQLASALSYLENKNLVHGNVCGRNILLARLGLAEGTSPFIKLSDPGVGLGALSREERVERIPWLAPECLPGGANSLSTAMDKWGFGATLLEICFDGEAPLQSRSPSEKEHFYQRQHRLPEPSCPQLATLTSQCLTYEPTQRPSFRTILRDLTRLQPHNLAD

SMILES	IC50 [1] [nM]	IC50 [2] [nM]
CC(=O)Nc1cc2c(cn1)C1(CC1)CN2c1cc(C)cc(N2CCN(C)CC2)n1 [Example 207, N-(1′-(4-methyl-6-(4-methylpiperazin-1-yl)pyridin-2-yl)-1′,2′-dihydrospiro[cyclopropane-1,3′-pyrrolo[3,2-c]pyridin]-6′-yl)acetamide]	100 to 1000	≥ 1000
CC(=O)Nc1cc2c(cn1)C1(CC1)CN2c1cc(C)cc(N2CCC3(CC2)COC3)n1 [Example 208, N-(1′-(4-methyl-6-(2-oxa-7-azaspiro[3.5]nonan-7-yl)pyridin-2-yl)-1′,2′-dihydrospiro[cyclopropane-1,3′-pyrrolo[3,2-c]pyridin]-6′-yl)acetamide]	100 to 1000	≥ 1000
CC(=O)Nc1cc2c(cn1)C1(CC1)CN2c1cc(C)cc(N2C[C@H]3CNC[C@H]3C2)n1 [Example 209, N-(1′-(6-((3aR,6aS)-hexahydropyrrolo[3,4-c]pyrrol-2(1H)-yl)-4-methylpyridin-2-yl)-1′,2′-dihydrospiro[cyclopropane-1,3′-pyrrolo[3,2-c]pyridin]-6′-yl)acetamide trifluoroacetate]	100 to 1000	≥ 1000
CC(=O)Nc1cc2c(cn1)C1(CC1)CN2c1cc(C)cc(N2CC3CCNC3C2)n1 (centres unmarked) [Example 210, N-(1′-(6-(hexahydropyrrolo[3,4-b]pyrrol-5(1H)-yl)-4-methylpyridin-2-yl)-1′,2′-dihydrospiro[cyclopropane-1,3′-pyrrolo[3,2-c]pyridin]-6′-yl)acetamide trifluoroacetate]	100 to 1000	≥ 1000
CC(=O)Nc1cc2c(cn1)C1(CC1)CN2c1cc(C)cc(N2CCNCC2)n1 [Example 211, N-(1′-(4-methyl-6-(piperazin-1-yl)pyridin-2-yl)-1′,2′-dihydrospiro[cyclopropane-1,3′-pyrrolo[3,2-c]pyridin]-6′-yl)acetamide trifluoroacetate]	≤ 10	≥ 1000
CC(=O)Nc1cc2c(cn1)C1(CC1)CN2c1cc(C)cc(N2CCNC(CCO)C2)n1 (centres unmarked) [Example 212, N-(1′-(6-(3-(2-hydroxyethyl)piperazin-1-yl)-4-methylpyridin-2-yl)-1′,2′-dihydrospiro[cyclopropane-1,3′-pyrrolo[3,2-c]pyridin]-6′-yl)acetamide trifluoroacetate]	100 to 1000	≥ 1000
CC(=O)Nc1cc2c(cn1)C1(CC1)CN2c1cc(C)nc(N2CCOCC2)n1 [Example 213, N-(1′-(6-methyl-2-morpholinopyrimidin-4-yl)-1′,2′-dihydrospiro[cyclopropane-1,3′-pyrrolo[3,2-c]pyridin]-6′-yl)acetamide]	10 to 100	≥ 1000
CC(=O)Nc1cc2c(cn1)C1(CC1)CN2c1cc(C)nc(N2CCC(O)C2)n1 (centres unmarked) [Example 214, N-(1′-(2-(3-hydroxypyrrolidin-1-yl)-6-methylpyrimidin-4-yl)-1′,2′-dihydrospiro[cyclopropane-1,3′-pyrrolo[3,2-c]pyridin]-6′-yl)acetamide]	100 to 1000	≥ 1000
CC(=O)Nc1cc2c(cn1)C1(CC1)CN2c1cc(C)nc(N2CC(C#N)C2)n1 [Example 216, N-(1′-(2-(3-cyanoazetidin-1-yl)-6-methylpyrimidin-4-yl)-1′,2′-dihydrospiro[cyclopropane-1,3′-pyrrolo[3,2-c]pyridin]-6′-yl)acetamide]	10 to 100	100 to 1000
CC(=O)Nc1cc2c(cn1)C1(CC1)CN2c1cc(C)nc(N2CC(F)C2)n1 [Example 217, N-(1′-(2-(3-fluoroazetidin-1-yl)-6-methylpyrimidin-4-yl)-1′,2′-dihydrospiro[cyclopropane-1,3′-pyrrolo[3,2-c]pyridin]-6′-yl)acetamide]	≤ 10	100 to 1000
CCC1(C#N)CN(c2nc(C)cc(N3CC4(CC4)c4cnc(NC(C)=O)cc43)n2)C1 [Example 219, N-(1′-(2-(3-cyano-3-ethylazetidin-1-yl)-6-methylpyrimidin-4-yl)-1′,2′-dihydrospiro[cyclopropane-1,3′-pyrrolo[3,2-c]pyridin]-6′-yl)acetamide]	10 to 100	100 to 1000
COCCC1(C#N)CN(c2nc(C)cc(N3CC4(CC4)c4cnc(NC(C)=O)cc43)n2)C1 [Example 220, N-(1′-(2-(3-cyano-3-(2-methoxyethyl)azetidin-1-yl)-6-methylpyrimidin-4-yl)-1′,2′-dihydrospiro[cyclopropane-1,3′-pyrrolo[3,2-c]pyridin]-6′-yl)acetamide]	10 to 100	≥ 1000
CC(=O)Nc1cc2c(cn1)C1(CC1)CN2c1cc(C)nc(N2CC(C)(C#N)C2)n1 [Example 221, N-(1′-(2-(3-cyano-3-methylazetidin-1-yl)-6-methylpyrimidin-4-yl)-1′,2′-dihydrospiro[cyclopropane-1,3′-pyrrolo[3,2-c]pyridin]-6′-yl)acetamide]	≤ 10	100 to 1000
CC(=O)Nc1cc2c(cn1)C1(CC1)CN2c1cc(C)nc(N2CC(C(F)F)C2)n1 [Example 222, N-(1′-(2-(3-(difluoromethyl)azetidin-1-yl)-6-methylpyrimidin-4-yl)-1′,2′-dihydrospiro[cyclopropane-1,3′-pyrrolo[3,2-c]pyridin]-6′-yl)acetamide]	10 to 100	≥ 1000
CC(=O)Nc1cc2c(cn1)C1(CC1)CN2c1cc(C)nc(N2CC(C#N)(C(F)F)C2)n1 [Example 223, N-(1′-(2-(3-cyano-3-(difluoromethyl)azetidin-1-yl)-6-methylpyrimidin-4-yl)-1′,2′-dihydrospiro[cyclopropane-1,3′-pyrrolo[3,2-c]pyridin]-6′-yl)acetamide trifluoroacetate]	10 to 100	≥ 1000
CC(=O)Nc1cc2c(cn1)C1(CC1)CN2c1cc(C)nc(N2CC(S(C)(=O)=O)C2)n1 [Example 224, N-(1′-(6-methyl-2-(3-(methylsulfonyl)azetidin-1-yl)pyrimidin-4-yl)-1′,2′-dihydrospiro[cyclopropane-1,3′-pyrrolo[3,2-c]pyridin]-6′-yl)acetamide]	100 to 1000	≥ 1000
CCS(=O)(=O)C1CN(c2nc(C)cc(N3CC4(CC4)c4cnc(NC(C)=O)cc43)n2)C1 [Example 225, N-(1′-(2-(3-(ethylsulfonyl)azetidin-1-yl)-6-methylpyrimidin-4-yl)-1′,2′-dihydrospiro[cyclopropane-1,3′-pyrrolo[3,2-c]pyridin]-6′-yl)acetamide]	100 to 1000	≥ 1000
CC(=O)Nc1cc2c(cn1)C1(CC1)CN2c1cc(C)nc(N2CC(C)(O)C2)n1 [Example 226, N-(1′-(2-(3-hydroxy-3-methylazetidin-1-yl)-6-methylpyrimidin-4-yl)-1′,2′-dihydrospiro[cyclopropane-1,3′-pyrrolo[3,2-c]pyridin]-6′-yl)acetamide]	10 to 100	≥ 1000
CC(=O)Nc1cc2c(cn1)C1(CC1)CN2c1cc(C)nc(N2CCN(C)CC2)n1 [Example 227, N-(1′-(6-methyl-2-(4-methylpiperazin-1-yl)pyrimidin-4-yl)-1′,2′-dihydrospiro[cyclopropane-1,3′-pyrrolo[3,2-c]pyridin]-6′-yl)acetamide]	100 to 1000	≥ 1000
CC(=O)Nc1cc2c(cn1)C1(CC1)CN2c1cc(C)nc(N2CCC3(CC2)COC3)n1 [Example 228, N-(1′-(6-methyl-2-(2-oxa-7-azaspiro[3.5]nonan-7-yl)pyrimidin-4-yl)-1′,2′-dihydrospiro[cyclopropane-1,3′-pyrrolo[3,2-c]pyridin]-6′-yl)acetamide trifluoroacetate]	100 to 1000	≥ 1000
CC(=O)Nc1cc2c(cn1)C1(CC1)CN2c1cc(C)nc(N2CCC(F)(F)C2)n1 [Example 229, N-(1′-(2-(3,3-difluoropyrrolidin-1-yl)-6-methylpyrimidin-4-yl)-1′,2′-dihydrospiro[cyclopropane-1,3′-pyrrolo[3,2-c]pyridin]-6′-yl)acetamide]	≤ 10	100 to 1000
COC1(C(=O)C2CC2)CCN(c2nc(C)cc(N3CC4(CC4)c4cnc(NC(C)=O)cc43)n2)CC1 [Example 231, N-(1′-(2-(4-(cyclopropanecarbonyl)-4-methoxypiperidin-1-yl)-6-methylpyrimidin-4-yl)-1′,2′-dihydrospiro[cyclopropane-1,3′-pyrrolo[3,2-c]pyridin]-6′-yl)acetamide trifluoroacetate]	100 to 1000	≥ 1000
CC(=O)Nc1cc2c(cn1)C1(CC1)CN2c1cc(C)nc(N2CCC(O)CC2)n1 [Example 232, N-(1′-(2-(4-hydroxypiperidin-1-yl)-6-methylpyrimidin-4-yl)-1′,2′-dihydrospiro[cyclopropane-1,3′-pyrrolo[3,2-c]pyridin]-6′-yl)acetamide]	100 to 1000	≥ 1000
COCCN1CCN(c2nc(C)cc(N3CC4(CC4)c4cnc(NC(C)=O)cc43)n2)CC1 [Example 233, N-(1′-(2-(4-(2-methoxyethyl)piperazin-1-yl)-6-methylpyrimidin-4-yl)-1′,2′-dihydrospiro[cyclopropane-1,3′-pyrrolo[3,2-c]pyridin]-6′-yl)acetamide trifluoroacetate]	≥ 1000	≥ 1000
COC1(C)CN(c2nc(C)cc(N3CC4(CC4)c4cnc(NC(C)=O)cc43)n2)C1 [Example 234, N-(1′-(2-(3-methoxy-3-methylazetidin-1-yl)-6-methylpyrimidin-4-yl)-1′,2′-dihydrospiro[cyclopropane-1,3′-pyrrolo[3,2-c]pyridin]-6′-yl)acetamide]	10 to 100	100 to 1000
